Source: US20230027066A1 (Urovant Sciences GmbH, priority 2019, published 2023)

Experiments:
[1] = Phase 3 study (75 mg), heart rate and blood pressure changes; assay type: in vivo, human
Description: Study assessments of safety included adverse events, physical examinations, vital signs (and weight), and clinical laboratory tests
Categorical changes are based on 3 consecutive post-baseline visits and patients are counted in all applicable categories (e.g., if a patient has a 12 unit increase then that patient is counted in both ≥5 and ≥10 unit columns).
Blood Pressure assessments are taken in triplicate and averaged at each visit.

[2] = tested on: men and women with overactive bladder; test: Phase 3 study (75 mg), patient-reported outcomes (OAB-q LF, PGI); assay type: in vivo, human; set-up: OAB-q sleep score, improvement greater than placebo / HRQL Total Score, improvement greater than placebo / OAB-q HRQL Total Score, Active - Placebo LS Means Difference: scale not given here
Description: Patients completed paper questionnaires at the site at the start of each required study visit to assess patient-perceived symptom relief, symptom bother, and health-related quality of life at the study visits. […] These included the following questionnaires:
1. Global Impression Items include Patient Global Impression of Severity (PGI-Severity), Patient Global Impression of Control (PGI-Control), Patient Global Impression of Frequency (PGI-Frequency), Patient Global Impression of Leakage (PGI-Leakage), and Patient Global Impression of Change (PGI-Change).
2. Overactive Bladder Questionnaire (OAB-q long form [OAB-q LF], 1-week recall) is a 33-item patient-administered, disease-specific questionnaire that includes a Health-Related QoL (HRQL) scale (25 items) and a Symptom Bother Scale (8 items). The HRQL is a multidomain concept that represents the patient's general perception of the effect of illness and treatment on physical, psychological, and social aspects of life. […] In the present study, the HRQL scale is divided into 4 subscales: Coping, Concern/Worry, Sleep, and Social Interaction. The Coping subscale (also referred to as the coping domain score) was a secondary endpoint, with items scored from 1 (none of the time) to 6 (all the time), with higher scores indicating better QoL. The HRQL total score is calculated by summating the individual HRQL subscale scores. The Symptom Bother Scale items are scored from 1 (not at all) to 6 (a very great deal), with higher Symptom Bother scores indicating greater symptom severity. The instrument was developed and validated in both continent and incontinent OAB patients, including both men and women.
With the exception of the symptom bother score, a responder was defined as having a change from baseline ≥10. For symptom bother score, a responder was defined as having a change from baseline […]. A higher proportion of patients represented a favorable response.

[3] = 3 consecutive post-baseline visits
[4] = 50% Total Incontinence Responders, Week 12
[5] = Week 12, responder = change from baseline ≥10

Structure (SMILES): Cc1ccc(O)c([C@H](CCN(C(C)C)C(C)C)c2ccccc2)c1 [Tolterodine ER, tolterodine, reference compound]
- Diastolic BP categorical change from baseline ≥5 mm Hg, patients [1, 3]: 7.4%
- Diastolic BP categorical change from baseline ≥10 mm Hg, patients [1, 3]: 2.1%
- Diastolic BP categorical change from baseline ≥15 mm Hg, patients [1, 3]: 0.7%
- Heart Rate categorical change from baseline ≥5 bpm, patients [1, 3]: 6.5%
- Heart Rate categorical change from baseline ≥10 bpm, patients [1, 3]: 2.1%
- Heart Rate categorical change from baseline ≥15 bpm, patients [1, 3]: 0.5%
- Systolic BP categorical change from baseline ≥5 mm Hg, patients [1, 3]: 9.3%
- Systolic BP categorical change from baseline ≥10 mm Hg, patients [1, 3]: 4.7%
- Systolic BP categorical change from baseline ≥15 mm Hg, patients [1, 3]: 2.1%
- Diastolic BP, 12-week change (95% CI) ([1]; Hypertensive at baseline): −1.3 (−3.8, +1.3) mm Hg
- Heart Rate, 12-week change ([1]; Hypertensive at baseline): +1.5 beats/minute
- Systolic BP, 12-week change (95% CI) ([1]; Hypertensive at baseline): −7.6 (−10.9, −4.3) mm Hg
- Diastolic BP, 12-week change (95% CI) ([1]; Normotensive at baseline): +0.5 (−0.2, +1.3) mm Hg
- Heart Rate, 12-week change ([1]; Normotensive at baseline): +0.2 beats/minute
- Systolic BP, 12-week change (95% CI) ([1]; Normotensive at baseline): +1.0 (−0.1, +2.1) mm Hg
- Diastolic BP, Mean Change from Baseline at Week 12 (SD) ([1]; Week 12, all patients): 0.3 (7.11) mm Hg
- Heart Rate, Mean Change from Baseline at Week 12 ([1]; Week 12, all patients): 0.3 beats/minute
- Systolic BP, Mean Change from Baseline at Week 12 ([1]; Week 12, all patients): 0.1 mm Hg
- OAB-q Coping Subscore, Change from baseline at week 12, LS Means (SE) [2, 4]: 18.5 (1.49)
- OAB-q Coping Subscore, Mean [2, 4]: 81.66 (20.882)
- OAB-q Symptom Bother Subscore, Change from baseline at week 12, LS Means [2, 4]: −21.7
- OAB-q Symptom Bother Subscore, Mean [2, 4]: 24.70
- Change from Baseline in PGI-Control, LS Mean ([2]; 75% UUI Responders, Week 4): −0.7 (0.07)
- PGI-Control, Mean (SD) ([2]; 75% UUI Responders, Week 4): 2.51 (0.907)
- Change from Baseline in PGI-Control, LS Mean ([2]; 75% UUI Responders, Week 8): −1.0 (0.07)
- PGI-Control, Mean (SD) ([2]; 75% UUI Responders, Week 8): 2.18 (0.861)
- Change from Baseline in PGI-Control, LS Mean ([2]; 75% UUI Responders, Week 12): −1.1 (0.07)
- OAB-q Coping Subscore, Change from baseline at week 12, LS Means (SE) ([2]; 75% UUI Responders, Week 12): 18.4 (1.73)
- OAB-q Coping Subscore, Mean (SD) ([2]; 75% UUI Responders, Week 12): 83.05 (20.409)
- OAB-q Symptom Bother Subscore, Change from Baseline at Week 12, LS Means (SE) ([2]; 75% UUI Responders, Week 12): −22.7 (1.60)
- OAB-q Symptom Bother Subscore, Mean (SD) ([2]; 75% UUI Responders, Week 12): 22.59 (17.919)
- PGI-Control, Mean (SD) ([2]; 75% UUI Responders, Week 12): 2.05 (0.862)
- OAB-q Concern Subscore, Week 12 Mean (SD) ([2]; Week 12): 80.93 (21.467)
- OAB-q Concern responders, Difference from Placebo ([2]; Week 12): 7.2
- OAB-q Concern, Active - Placebo LS Means Difference ([2]; Week 12): 4.4
- OAB-q Concern, change from baseline LS Means (SE) ([2]; Week 12): 14.7(1.32)
- OAB-q Coping Score, Active - Placebo LS Means Difference ([2]; Week 12): 3.1
- OAB-q Coping Score, change from baseline LS Means (SE) ([2]; Week 12): 15.9 (1.39)
- OAB-q Coping Sub score, Week 12 Mean (SD) ([2]; Week 12): 77.77 (23.439)
- OAB-q Coping responders, Difference from Placebo ([2]; Week 12): 6.9
- OAB-q HRQL Total Score, Active - Placebo LS Means Difference ([2]; Week 12): 2.9
- OAB-q HRQL Total Score, change from baseline LS Means (SE) ([2]; Week 12): 13.6 (1.19)
- OAB-q Sleep Subscore, Week 12 Mean (SD) ([2]; Week 12): 74.25 (23.140)
- OAB-q Sleep responders, Difference from Placebo ([2]; Week 12): −0.5
- OAB-q Sleep, Active - Placebo LS Means Difference ([2]; Week 12): 2.6
- OAB-q Sleep, change from baseline LS Means (SE) ([2]; Week 12): 12.9 (1.42)
- OAB-q Social Interaction Subscore, Week 12 Mean (SD) ([2]; Week 12): 88.35 (18.214)
- OAB-q Social Interaction responders, Difference from Placebo ([2]; Week 12): 2.2
- OAB-q Social Interaction, Active - Placebo LS Means Difference ([2]; Week 12): 0.6
- OAB-q Social Interaction, change from baseline LS Means (SE) ([2]; Week 12): 9.4 (1.03)
- OAB-q Symptom Bother Subscore, Week 12 Mean (SD) ([2]; Week 12): 29.33 (19.568)
- OAB-q Symptom Bother responders, Difference from Placebo ([2]; Week 12): 8.2
- OAB-q Symptom Bother, Active - Placebo LS Means Difference ([2]; Week 12): −4.6
- OAB-q Symptom Bother, change from baseline LS Means (SE) ([2]; Week 12): −17.4 (1.31)
- OAB-q Total HRQL Score, Week 12 Mean (SD) ([2]; Week 12): 80.07 (19.826)
- OAB-q Total HRQL responders, Difference from Placebo ([2]; Week 12): 3.1
- OAB-q Symptom Bother responders, % ([2]; Week 12, responder = change from baseline ≤−10): (66.5) %
- OAB-q Concern responders, % [2, 5]: (57.0) %
- OAB-q Coping responders, % [2, 5]: (61.3) %
- OAB-q Sleep responders, % [2, 5]: (51.3) %
- OAB-q Social Interaction responders, % [2, 5]: (37.4) %
- OAB-q Total HRQL responders, % [2, 5]: (51.8) %
- OAB-q Concern responders, Odds Ratio ([2]; Week 12, vs placebo): 1.6
- OAB-q Coping responders, Odds Ratio ([2]; Week 12, vs placebo): 1.5
- OAB-q Sleep responders, Odds Ratio ([2]; Week 12, vs placebo): 1.1
- OAB-q Social Interaction responders, Odds Ratio ([2]; Week 12, vs placebo): 1.2
- OAB-q Symptom Bother responders, Odds Ratio ([2]; Week 12, vs placebo): 1.6
- OAB-q Total HRQL responders, Odds Ratio ([2]; Week 12, vs placebo, logistic regression): 1.3
